Data as given in patent publication US11806367B2, “Methods of treating lysosomal disorders” (The Regents of the University of California, priority 2017, dated 2023).
Where two headings read alike, the source gives them in different places.

Key:
[1] = affected patients; cited from earlier work
Ctns^−/− mice = system: Ctns^−/− mice
Procedure: Ctns^−/− mice were exposed to myeloablative drugs currently used in clinic for HSC transplantation, Busulfan (Bu) and Cyclophosphamide (Cy) to test if drug-mediated myeloablation allow efficient engraftment of Ctns-expressing HSC in the preclinical model, decreased tissue cystine and to determine if any unexpected toxicity occurs because of cystinosis. Drugs were injected intraperitoneally (IP) in Ctns^−/− mice and WT mice as controls.

NCCS [cysteamine, mercaptoethylamine]
effect on renal Fanconi syndrome [1]: has no effect

O=P1(N(CCCl)CCCl)NCCCO1 (stereo not shown) [Cy, Cyclophosphamide]
toxicity in Ctns^−/− mice (Ctns^−/− mice; IP injection, 4 months post-transplant, compared to WT controls): not toxic

CS(=O)(=O)OCCCCOS(C)(=O)=O [Bu, Busulfan]
donor cell engraftment measured in the peripheral blood (Ctns^−/− mice; 4 months post-transplant): 94.0±0.8% | toxicity in Ctns^−/− mice (Ctns^−/− mice; mouse, in vivo, ip): not toxic
